Assay results taken from patent US20110144188A1, “SALTS OF T[…] N-[…] TRIMEBUTINE” (Antibe Therapeutics Inc., priority 2006, published 2011).

Key:
[1] = system: abdominal pain in patients with functional bowel disorders; conditions: especially IBS, 300 to 600 mg/day; cited from earlier work
[2] = system: rat model of visceral pain perception; test: Rat model of visceral pain perception (colorectal distension, AWR score and colorectal pressure); assay type: in vivo
Description: A rat model of visceral pain perception, a pre-clinical model of irritable bowel syndrome, was used in the following example. Rats (male, Wistar, 200-250 g, obtained from Charles River, Monza, Italy), were housed in plastic cages and maintained under controlled conditions with 12-hours light/dark cycle with lights on at 7.00 AM. Tap water and standard laboratory chow were freely available. Before experiments, rats were individually trained by spending 2-3 hours per day in a plexiglass cage for 2-3 days. It allowed them to adjust to a movement-restriction environment. Food was withheld for 12 hours before colorectal distension (CRD) recording were performed. Experiments were performed in awake rats and were conducted in a blind manner in that the observer was not aware of the identity of drug administered to each animal.
On the testing day, rats were sedated with ether inhalation and a 2 cm long latex balloon was inserted intrarectally 2 cm from the anal verge and fixed at the base of the tail. The balloon was connected via a double-barreled cannula to a pressure transducer to continuously monitoring the rectal pressure by a computer (PowerLab PC, A.D. Instruments, Milford, Mass., USA) and to a syringe for inflation/deflation of the balloon. The rats were then housed in a small cage (20×8×8 cm) on an elevated Plexiglas™ platform and allowed to wake up and adapt for 1 hour. After recovery from sedation, animals underwent the CRD procedure and behavioral responses were tested. The night before the experiments, the balloons were inflated and left overnight so the latex stretched and the balloons became compliant.
CRD of 20 seconds, performed every 5 minutes, was applied in increment of 0.4 ml starting from 0.4 ml up to 1.6 ml water. To achieve an accurate measurement of the colonic parameters and perception, the distensions were repeated twice for each intensity and data for each animal were averaged for analysis. Each animal underwent a double set of CRD. Twenty minutes after the first sequence of CRD (0.4 mL-1.6 ml water), drugs were administered intraperitoneally (i.p.) and a second set of CRD was performed. Behavioral responses during the first and the second set of CRD were assessed and compared.
Behavioral response to CRD was assessed by measuring the abdominal withdrawal reflex (AWR) using a semi-quantitative score (1).
The effects of trimebutine maleate, nitroarginine and trimebutine nitroargininate on colonic compliance and sensitivity were determined using a total of 15 fasting rats. […]
To determine the effect of trimebutine maleate, nitroarginine and trimebutine nitroargininate on colonic smooth muscle, the compliance of the colo-rectum during CRD was obtained from intracolo-rectal volume and pressure and expressed as mL/mmHg. […]

NC(=S)c1ccc(C(=O)O)cc1
melting point: 296 to 298 °C (dec.)

CCC(COC(=O)c1cc(OC)c(OC)c(OC)c1)(c1ccccc1)N(C)C (stereo not drawn) [Trimebutine, 3,4,5-trimethoxybenzoic acid 2-(dimethylamino)-2-phenylbutylester]
treatment of abdominal pain in patients [1]: effective in the treatment of both acute and chronic abdominal pain

CCC(COC(=O)c1cc(OC)c(OC)c(OC)c1)(c1ccccc1)N(C)C.N=C(NCCC[C@H](N)C(=O)O)N[N+](=O)[O-] (stereo not drawn) [trimebutine nitroargininate]
reducing visceral pain in response to colorectal distension (AWR score) ([2]; Wistar rats, 16 mg/kg i.p., vs trimebutine maleate 10 mg/kg i.p. and nitroarginine 6 mg/kg, FIGS. 1(a), 2(a), 3(a)): more effective than either trimebutine maleate or nitroarginine
visceral analgesic effects (AWR score) after pretreatment with L-NAME ([2]; rats, 16 mg/kg i.p., L-NAME 25 mg/kg i.v. 10 min before, FIG. 4(a)): largely abolished
visceral analgesic effects (AWR score) after pretreatment with methylene blue ([2]; rats, 16 mg/kg i.p., methylene blue 1 mg/kg i.p. 10 min before, FIG. 4(b)): largely abolished

CCC(COC(=O)c1cc(OC)c(OC)c(OC)c1)(c1ccccc1)N(C)C.NC(=S)c1ccc(C(=O)O)cc1 (stereo not drawn) [trimebutine thiocarbamoylbenzoate, 3,4,5-trimethoxybenzoic acid 2-(dimethylamino)-2-phenylbutyl ester 4-thiocarbamoyl benzoate]
reducing visceral pain in response to colorectal distension (AWR score) ([2]; rats, dose equimolar to trimebutine maleate 10 mg/kg, vs trimebutine maleate and thiocarbamoylbenzoate alone, FIGS. 5(a), 5(b)): more effective than either trimebutine maleate or thiocarbamoylbenzoate
